Reference: patent US20260256792A1, “TREATMENT OF CHRONIC SPONTANEOUS URTICARIA BY ADMINISTERING (R)-2-[3-[4-AMINO-3-(2-FLUORO-4-PHENOXY-PHENYL)PYRAZOLO[3,4-D]PYRIMIDIN-1-YL]PIPERIDINE-1-CARBONYL]-4-METHYL-4-[4-(OXETAN-3-YL)PIPERAZIN-1-YL]PENT-2-ENENITRILE” (priority 2023, published 2026)

Tested on: angioedema in CSU patients
Test: Phase 2 CSU study: angioedema activity score over 7 days (AAS7)
Assay type: in vivo, human
Parameters: AAS7, Median / AAS7 Change from baseline, Median: scale not given here
Source text: The study comprises a 12 week, randomized, double-blind, placebo-controlled, multi-center, dose-ranging efficacy and safety phase, followed by a 40 week open label extension (OLE) phase (see FIG. 1). The study consists of three phases and an optional OLE phase. […] The weekly angioedema activity score (AAS7) was proposed as a tertiary endpoint. […] Patients were to complete the AAS using the e-diary. The e-diary was to be used once daily on the same time of each day recording of participant's answers to the angioedema activity score over 7 days (AAS7) questionnaire.

[1] = Omalizumab-Naïve Population, 400 mg TID, Week 7
[2] = Omalizumab-Naïve Population, 400 mg TID, Week 8
[3] = Omalizumab-Naïve Population, 400 mg TID, Week 9
[4] = Omalizumab-Naïve Population, 400 mg TID, Week 10
[5] = Omalizumab-Naïve Population, 400 mg TID, Week 11
[6] = Omalizumab-Naïve Population, 400 mg TID, Week 12
[7] = Patients with Prior Omalizumab Use, 400 mg BID, Week 1
[8] = Patients with Prior Omalizumab Use, 400 mg BID, Week 2
[9] = Patients with Prior Omalizumab Use, 400 mg BID, Week 3
[10] = Patients with Prior Omalizumab Use, 400 mg BID, Week 4
[11] = Patients with Prior Omalizumab Use, 400 mg BID, Week 5
[12] = Patients with Prior Omalizumab Use, 400 mg BID, Week 6
[13] = Patients with Prior Omalizumab Use, 400 mg BID, Week 7
[14] = Patients with Prior Omalizumab Use, 400 mg BID, Week 8
[15] = Patients with Prior Omalizumab Use, 400 mg QPM, Week 1
[16] = Patients with Prior Omalizumab Use, 400 mg QPM, Week 2
[17] = Patients with Prior Omalizumab Use, 400 mg QPM, Week 3
[18] = Patients with Prior Omalizumab Use, 400 mg QPM, Week 4
[19] = Patients with Prior Omalizumab Use, 400 mg QPM, Week 5
[20] = Patients with Prior Omalizumab Use, 400 mg QPM, Week 6
[21] = Patients with Prior Omalizumab Use, 400 mg QPM, Week 7
[22] = Patients with Prior Omalizumab Use, 400 mg QPM, Week 8

CC(C)(C=C(C#N)C(=O)N1CCC[C@@H](n2nc(-c3ccc(Oc4ccccc4)cc3F)c3c(N)ncnc32)C1)N1CCN(C2COC2)CC1 [rilzabrutinib, (R)-2-[3-[4-amino-3-(2-fluoro-4-phenoxy-phenyl)pyrazolo[3,4-d]pyrimidin-1-yl]piperidine-1-carbonyl]-4-methyl-4-[4-(oxetan-3-yl)piperazin-1-yl]pent-2-enenitrile]
AAS7 Change from baseline, Median [1]: −27.00
AAS7 Percent change from baseline, Mean (SD) [1]: −66.41 (55.40) %
AAS7 Percent change from baseline, Median [1]: −93.41%
AAS7 Change from baseline, Mean (SD) [2]: −33.38 (24.94)
AAS7 Change from baseline, Median [2]: −25.00
AAS7 Percent change from baseline, Mean (SD) [2]: −69.90 (38.13) %
AAS7 Percent change from baseline, Median [2]: −85.88%
AAS7, Median [3]: 1.40
AAS7 Change from baseline, Mean (SD) [3]: −38.54 (26.30)
AAS7 Change from baseline, Median [3]: −39.00
AAS7 Percent change from baseline, Mean (SD) [3]: −78.96 (34.18) %
AAS7 Percent change from baseline, Median [3]: −98.13%
AAS7, Median [4]: 2.00
AAS7 Change from baseline, Mean (SD) [4]: −39.26 (24.84)
AAS7 Change from baseline, Median [4]: −40.00
AAS7 Percent change from baseline, Mean (SD) [4]: −82.44 (32.63) %
AAS7 Percent change from baseline, Median [4]: −96.61%
AAS7, Median [5]: 3.00
AAS7 Change from baseline, Mean (SD) [5]: −36.30 (27.49)
AAS7 Change from baseline, Median [5]: −31.00
AAS7 Percent change from baseline, Mean (SD) [5]: −76.08 (33.07) %
AAS7 Percent change from baseline, Median [5]: −96.00%
AAS7, Median [6]: 0.00
AAS7 Change from baseline, Mean (SD) [6]: −37.55 (25.86)
AAS7 Change from baseline, Median [6]: −31.00
AAS7 Percent change from baseline, Mean (SD) [6]: −82.72 (30.20) %
AAS7 Percent change from baseline, Median [6]: −100.00%
AAS7, Mean (SD) [7]: 0.00 (0.00)
AAS7, Median [7]: 0.00
AAS7 Change from baseline, Mean (SD) [7]: −39.50 (3.54)
AAS7 Change from baseline, Median [7]: −39.50
AAS7 Percent change from baseline, Mean (SD) [7]: −100.00 (0.00) %
AAS7 Percent change from baseline, Median [7]: −100.00%
AAS7, Mean (SD) [8]: 0.00 (0.00)
AAS7, Median [8]: 0.00
AAS7 Change from baseline, Mean (SD) [8]: −39.50 (3.54)
AAS7 Change from baseline, Median [8]: −39.50
AAS7 Percent change from baseline, Mean (SD) [8]: −100.00 (0.00) %
AAS7 Percent change from baseline, Median [8]: −100.00%
AAS7, Mean (SD) [9]: 0.00 (0.00)
AAS7, Median [9]: 0.00
AAS7 Change from baseline, Mean (SD) [9]: −39.50 (3.54)
AAS7 Change from baseline, Median [9]: −39.50
AAS7 Percent change from baseline, Mean (SD) [9]: −100.00 (0.00) %
AAS7 Percent change from baseline, Median [9]: −100.00%
AAS7, Mean (SD) [10]: 0.00 (0.00)
AAS7, Median [10]: 0.00
AAS7 Change from baseline, Mean (SD) [10]: −39.50 (3.54)
AAS7 Change from baseline, Median [10]: −39.50
AAS7 Percent change from baseline, Mean (SD) [10]: −100.00 (0.00) %
AAS7 Percent change from baseline, Median [10]: −100.00%
AAS7, Mean (SD) [11]: 0.00 (0.00)
AAS7, Median [11]: 0.00
AAS7 Change from baseline, Mean (SD) [11]: −39.50 (3.54)
AAS7 Change from baseline, Median [11]: −39.50
AAS7 Percent change from baseline, Mean (SD) [11]: −100.00 (0.00) %
AAS7 Percent change from baseline, Median [11]: −100.00%
AAS7, Mean (SD) [12]: 0.00 (0.00)
AAS7, Median [12]: 0.00
AAS7 Change from baseline, Mean (SD) [12]: −39.50 (3.54)
AAS7 Change from baseline, Median [12]: −39.50
AAS7 Percent change from baseline, Mean (SD) [12]: −100.00 (0.00) %
AAS7 Percent change from baseline, Median [12]: −100.00%
AAS7, Mean (SD) [13]: 1.00 (1.41)
AAS7, Median [13]: 1.00
AAS7 Change from baseline, Mean (SD) [13]: −38.50 (2.12)
AAS7 Change from baseline, Median [13]: −38.50
AAS7 Percent change from baseline, Mean (SD) [13]: −97.62 (3.37) %
AAS7 Percent change from baseline, Median [13]: −97.62%
AAS7, Mean (SD) [14]: 0.00 (0.00)
AAS7, Median [14]: 0.00
AAS7 Change from baseline, Mean (SD) [14]: −39.50 (3.54)
AAS7 Change from baseline, Median [14]: −39.50
AAS7, Mean (SD) [15]: 27.00 (NC)
AAS7, Median [15]: 27.00
AAS7 Change from baseline, Mean (SD) [15]: 41.00 (NC)
AAS7 Change from baseline, Median [15]: −41.00
AAS7 Percent change from baseline, Mean (SD) [15]: −60.29 (NC) %
AAS7 Percent change from baseline, Median [15]: −60.29%
AAS7, Mean (SD) [16]: 25.00 (NC)
AAS7, Median [16]: 25.00
AAS7 Change from baseline, Mean (SD) [16]: −43.00 (NC)
AAS7 Change from baseline, Median [16]: −43.00
AAS7 Percent change from baseline, Mean (SD) [16]: −63.24 (NC) %
AAS7 Percent change from baseline, Median [16]: −63.24%
AAS7, Mean (SD) [17]: 29.00 (NC)
AAS7, Median [17]: 29.00
AAS7 Change from baseline, Mean (SD) [17]: −39.00 (NC)
AAS7 Change from baseline, Median [17]: −39.00
AAS7 Percent change from baseline, Mean (SD) [17]: −57.35 (NC) %
AAS7 Percent change from baseline, Median [17]: −57.35%
AAS7, Mean (SD) [18]: 26.00 (NC)
AAS7, Median [18]: 26.00
AAS7 Change from baseline, Mean (SD) [18]: −42.00 (NC)
AAS7 Change from baseline, Median [18]: −42.00
AAS7 Percent change from baseline, Mean (SD) [18]: −61.76 (NC) %
AAS7 Percent change from baseline, Median [18]: −61.76%
AAS7, Mean (SD) [19]: 37.00 (NC)
AAS7, Median [19]: 37.00
AAS7 Change from baseline, Mean (SD) [19]: −31.00 (NC)
AAS7 Change from baseline, Median [19]: −31.00
AAS7 Percent change from baseline, Mean (SD) [19]: −45.59 (NC) %
AAS7 Percent change from baseline, Median [19]: −45.59%
AAS7, Mean (SD) [20]: 21.00 (NC)
AAS7, Median [20]: 21.00
AAS7 Change from baseline, Mean (SD) [20]: −47.00 (NC)
AAS7 Change from baseline, Median [20]: −47.00
AAS7 Percent change from baseline, Mean (SD) [20]: −69.12 (NC) %
AAS7 Percent change from baseline, Median [20]: −69.12%
AAS7, Mean (SD) [21]: 12.00 (NC)
AAS7, Median [21]: 12.00
AAS7 Change from baseline, Mean (SD) [21]: −56.00 (NC)
AAS7 Change from baseline, Median [21]: −56.00
AAS7 Percent change from baseline, Mean (SD) [21]: −82.35 (NC) %
AAS7 Percent change from baseline, Median [21]: −82.35%
AAS7, Mean (SD) [22]: 18.00 (NC)
AAS7, Median [22]: 18.00
AAS7 Change from baseline, Mean (SD) [22]: −50.00 (NC)
